A value given as a limit tells only on which side of the number the result lay.

The experiment deals with Human cathepsin B (Homo sapiens, UniProt P07858). In words: Cathepsin B Assay. It counts as biochemical. Particulars: apparent inhibition constant; Boc-Leu-Arg-Arg-AMC substrate; pH 6; 30 minutes pre-incubation; read-out: cat B Ki. As to the method: Solutions of test compounds in varying concentrations were prepared in 10 μL of dimethyl sulfoxide (DMSO) and then diluted into assay buffer (40 μL, comprising: N,N-bis(2-hydroxyethyl)-2-aminoethanesulfonic acid (BES), 50 mM (pH 6); polyoxyethylenesorbitan monolaurate, 0.05%; and dithiothreitol (DTT), 2.5 mM). Human cathepsin B (0.025 pMoles in 25 μL of assay buffer) was added to the dilutions. The assay solutions were mixed for 5-10 seconds on a shaker plate, covered and incubated for 30 minutes at ambient temperature. Boc-Leu-Arg-Arg-AMC (20 μM in 1% DMSO) was added to the assay solutions and hydrolysis was followed spectrophotometrically at (λ 460 nm) for 5 minutes. Apparent inhibition constants (Ki) were calculated from the enzyme progress curves using standard mathematical models.
Turning to `CC[C@H](NC(=O)[C@H](Cc1cc(Cl)c(O)c(Cl)c1)N[C@@H](c1ccc(Br)cc1)C(F)(F)F)C(=O)C(=O)NC1CC1` [N-cyclopropyl-3S-{3-[3,5-dichloro-4-hydroxyphenyl)-2S-(2,2,2-trifluoro)-1S-(4-bromophenyl)ethylamino]propionylamino}-2-oxopentanamide], the Ki was 1.53 nM.
On to `CC[C@H](NC(=O)[C@H](Cc1cc(Cl)c(O)c(Cl)c1)N[C@@H](c1ccc(F)cc1)C(F)(F)F)C(=O)C(=O)NC1CC1` [N-Cyclopropyl-3S-{3-[3,5-dichloro-4-hydroxyphenyl)-2S-(2,2,2-trifluoro)-1S-(4-fluorophenyl)ethylamino]propionylamino}-2-oxopentanamide], for which the Ki is no more than 1 nM.
With `N#CCNC(=O)[C@H](Cc1cc(I)c(O)c(I)c1)N[C@@H](c1ccc(Br)cc1)C(F)(F)F` [N-Cyanomethyl-2S-[2,2,2-trifluoro-1S-(4-bromophenyl)-ethylamino]-3-(3,5-diiodo-4-hydroxyphenyl)-propanamide], the Ki stood at 3.5 nM.
Take `CC[C@H](NC(=O)[C@H](Cc1cc(I)c(O)c(I)c1)N[C@@H](c1ccc(F)cc1)C(F)(F)F)C(=O)C(=O)NC1CC1` [N-cyclopropyl-3S-{3-[3,5-diiodo-4-hydroxyphenyl)-2S-(2,2,2-trifluoro)-1S-(4-fluorophenyl)ethylamino]propionylamino}-2-oxopentanamide]: the Ki came out at 1.16 nM.
On to `N#CC1(NC(=O)[C@H](Cc2cc(Cl)c(O)c(Cl)c2)N[C@@H](c2ccc(Br)cc2)C(F)(F)F)CC1` [N-(1-Cyanocyclopropyl)-2S-[2,2,2-trifluoro-1S-(4-bromophenyl)-ethylamino]-3-(3,5-dichloro-4-hydroxyphenyl)-propanamide], for which the Ki amounted to 45 nM.
With `N#CC1(NC(=O)[C@H](Cc2cc(Cl)c(O)c(Cl)c2)N[C@@H](c2ccc(F)cc2)C(F)(F)F)CC1` [N-(1-Cyanocyclopropyl)-2S-[2,2,2-trifluoro-1S-(4-fluorophenyl)-ethylamino]-3-(3,5-dichloro-4-hydroxyphenyl)-propanamide], the Ki is 130 nM.
As to `CC[C@H](NC(=O)[C@H](Cc1cc(I)c(O)c(I)c1)N[C@@H](c1ccc(Br)cc1)C(F)(F)F)C(=O)C(=O)NC1CC1` [N-cyclopropyl-3S-{3-[3,5-diiodo-4-hydroxyphenyl)-2S-(2,2,2-trifluoro)-1S-(4-bromophenyl)ethylamino]propionylamino}-2-oxopentanamide], the Ki came to 1.28 nM.
Regarding `N#CC1(NC(=O)[C@H](Cc2cc(I)c(O)c(I)c2)N[C@@H](c2ccc(Br)cc2)C(F)(F)F)CC1` [N-(1-Cyanocyclopropyl)-2S-[2,2,2-trifluoro-1S-(4-bromophenyl)-ethylamino]-3-(3,5-diiodo-4-hydroxyphenyl)-propanamide], the Ki worked out at 13 nM.

The values are drawn from patent US20150191459A1, “CATHEPSIN INHIBITORS” (ViroBay, Inc., priority 2013, published 2015).
